What was measured:
Experiment in all cases: biochemical
Design in all cases: Reaction Biology kinase panel, control compounds in 10-dose IC50 mode at Km ATP
ARAF = biological target: T1, ARAF (Homo sapiens, UniProt P10398)
T1 sequence (P10398 1-606): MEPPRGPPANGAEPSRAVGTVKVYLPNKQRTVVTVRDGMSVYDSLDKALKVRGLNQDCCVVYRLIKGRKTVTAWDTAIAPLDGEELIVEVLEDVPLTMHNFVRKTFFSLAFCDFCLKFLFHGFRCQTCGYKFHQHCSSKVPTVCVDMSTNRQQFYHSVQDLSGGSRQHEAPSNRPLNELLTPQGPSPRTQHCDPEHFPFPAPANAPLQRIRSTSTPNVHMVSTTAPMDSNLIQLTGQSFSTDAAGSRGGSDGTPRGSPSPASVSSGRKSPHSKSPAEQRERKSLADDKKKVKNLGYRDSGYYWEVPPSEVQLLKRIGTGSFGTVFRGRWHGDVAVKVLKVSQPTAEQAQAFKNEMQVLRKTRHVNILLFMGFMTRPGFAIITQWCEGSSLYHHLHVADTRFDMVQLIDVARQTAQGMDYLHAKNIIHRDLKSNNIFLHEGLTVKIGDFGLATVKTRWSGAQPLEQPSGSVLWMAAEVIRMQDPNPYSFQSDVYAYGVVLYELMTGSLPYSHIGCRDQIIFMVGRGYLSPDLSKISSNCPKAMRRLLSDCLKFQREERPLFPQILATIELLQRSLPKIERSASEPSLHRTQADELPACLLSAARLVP

CK2a = biological target: T2, CK2a (Homo sapiens, UniProt P68400)
T2 construct: gene CSNK2A1

DYRK4 = biological target: T3, DYRK4 (Homo sapiens, UniProt Q9NR20)
T3 sequence (Q9NR20 1-520): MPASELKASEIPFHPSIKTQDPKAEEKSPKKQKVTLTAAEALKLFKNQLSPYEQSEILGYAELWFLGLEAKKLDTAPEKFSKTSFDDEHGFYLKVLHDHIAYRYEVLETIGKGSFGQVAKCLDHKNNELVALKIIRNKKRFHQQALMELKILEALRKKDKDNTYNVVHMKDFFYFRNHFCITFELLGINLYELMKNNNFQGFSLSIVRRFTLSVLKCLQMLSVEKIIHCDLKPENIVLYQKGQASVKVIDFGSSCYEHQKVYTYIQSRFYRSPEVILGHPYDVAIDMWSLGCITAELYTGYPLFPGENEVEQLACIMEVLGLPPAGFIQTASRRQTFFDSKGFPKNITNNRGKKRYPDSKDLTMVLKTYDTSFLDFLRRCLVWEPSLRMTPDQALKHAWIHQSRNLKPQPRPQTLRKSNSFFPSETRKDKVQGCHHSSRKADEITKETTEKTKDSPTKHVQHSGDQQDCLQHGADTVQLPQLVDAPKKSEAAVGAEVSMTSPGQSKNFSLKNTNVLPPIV

ZAK/MLTK = biological target: T4, ZAK/MLTK (Homo sapiens, UniProt Q9NYL2)
T4 construct: gene MAP3K20

PKMYT1 = biological target: T5, PKMYT1 (Homo sapiens, UniProt Q99640)
T5 sequence (Q99640 1-499): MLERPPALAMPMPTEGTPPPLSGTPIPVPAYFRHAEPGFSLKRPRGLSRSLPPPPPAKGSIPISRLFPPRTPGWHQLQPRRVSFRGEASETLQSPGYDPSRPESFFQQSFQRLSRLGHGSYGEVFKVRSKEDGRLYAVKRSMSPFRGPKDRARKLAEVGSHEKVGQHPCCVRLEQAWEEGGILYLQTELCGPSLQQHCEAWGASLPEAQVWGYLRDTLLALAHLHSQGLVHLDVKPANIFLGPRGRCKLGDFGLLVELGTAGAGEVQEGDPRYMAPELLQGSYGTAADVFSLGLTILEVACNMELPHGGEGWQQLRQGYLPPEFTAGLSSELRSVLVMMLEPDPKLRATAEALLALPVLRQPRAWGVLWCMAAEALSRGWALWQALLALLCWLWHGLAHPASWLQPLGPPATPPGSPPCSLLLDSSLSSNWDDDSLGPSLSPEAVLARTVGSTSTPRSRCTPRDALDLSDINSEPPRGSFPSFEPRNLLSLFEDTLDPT

TGFBR2 = TGFBR2 (Homo sapiens, UniProt P37173)
TTBK2 = TTBK2 (Homo sapiens, UniProt Q6IQ55)
TTBK1 = TTBK1 (Homo sapiens, UniProt Q5TCY1); conditions: control compound, Km ATP; read-out: IC50 (M) Control Cmpd
COT1/MAP3K8 = COT1/MAP3K8 (Homo sapiens, UniProt P41279)
HIPK1 = HIPK1 (Homo sapiens, UniProt Q86Z02)
HPK1/MAP4K1 = HPK1/MAP4K1 (Homo sapiens, UniProt Q92918)
LOK/STK10 = LOK/STK10 (Homo sapiens, UniProt O94804)
VRK2 = VRK2 (Homo sapiens, UniProt Q86Y07)
ERK1 = biological target: T6, ERK1 (Homo sapiens, UniProt P27361)
T6 construct: gene MAPK3
T6 sequence (P27361 whole entry): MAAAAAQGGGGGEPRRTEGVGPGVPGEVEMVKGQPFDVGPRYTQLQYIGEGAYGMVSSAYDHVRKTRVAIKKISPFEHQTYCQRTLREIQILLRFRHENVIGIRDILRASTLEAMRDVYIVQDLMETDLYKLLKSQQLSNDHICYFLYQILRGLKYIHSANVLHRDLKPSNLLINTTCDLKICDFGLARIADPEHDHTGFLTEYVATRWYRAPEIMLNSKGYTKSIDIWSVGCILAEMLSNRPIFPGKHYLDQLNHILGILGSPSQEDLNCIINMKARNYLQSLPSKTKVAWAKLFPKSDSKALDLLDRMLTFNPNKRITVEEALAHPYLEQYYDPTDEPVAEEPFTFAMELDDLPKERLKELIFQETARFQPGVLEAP

Sequence of LOK/STK10 (O94804 whole entry): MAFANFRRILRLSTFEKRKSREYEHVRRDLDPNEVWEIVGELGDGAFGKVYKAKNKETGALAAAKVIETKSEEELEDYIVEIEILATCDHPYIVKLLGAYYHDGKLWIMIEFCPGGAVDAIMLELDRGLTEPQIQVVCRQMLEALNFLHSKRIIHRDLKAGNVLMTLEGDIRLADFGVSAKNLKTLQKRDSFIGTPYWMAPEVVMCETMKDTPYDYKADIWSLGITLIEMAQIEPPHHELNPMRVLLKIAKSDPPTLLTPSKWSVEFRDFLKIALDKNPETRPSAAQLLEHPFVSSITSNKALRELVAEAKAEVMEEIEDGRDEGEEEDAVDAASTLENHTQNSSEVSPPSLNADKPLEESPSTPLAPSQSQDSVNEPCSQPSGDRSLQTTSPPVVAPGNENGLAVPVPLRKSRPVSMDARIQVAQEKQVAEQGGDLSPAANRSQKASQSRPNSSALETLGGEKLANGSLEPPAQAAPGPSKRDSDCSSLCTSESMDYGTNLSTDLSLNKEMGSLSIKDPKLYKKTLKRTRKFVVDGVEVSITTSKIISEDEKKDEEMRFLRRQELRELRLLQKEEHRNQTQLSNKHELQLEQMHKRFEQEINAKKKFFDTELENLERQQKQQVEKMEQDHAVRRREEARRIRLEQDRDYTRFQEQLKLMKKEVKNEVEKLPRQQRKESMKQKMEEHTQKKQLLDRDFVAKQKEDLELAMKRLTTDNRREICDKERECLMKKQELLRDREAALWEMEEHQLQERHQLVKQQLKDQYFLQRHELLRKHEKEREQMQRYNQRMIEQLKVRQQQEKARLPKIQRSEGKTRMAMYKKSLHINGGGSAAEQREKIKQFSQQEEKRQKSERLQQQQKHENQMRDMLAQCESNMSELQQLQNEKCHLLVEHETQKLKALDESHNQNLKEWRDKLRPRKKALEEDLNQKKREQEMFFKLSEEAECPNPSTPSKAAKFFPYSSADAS
Sequence of TGFBR2 (P37173 whole entry): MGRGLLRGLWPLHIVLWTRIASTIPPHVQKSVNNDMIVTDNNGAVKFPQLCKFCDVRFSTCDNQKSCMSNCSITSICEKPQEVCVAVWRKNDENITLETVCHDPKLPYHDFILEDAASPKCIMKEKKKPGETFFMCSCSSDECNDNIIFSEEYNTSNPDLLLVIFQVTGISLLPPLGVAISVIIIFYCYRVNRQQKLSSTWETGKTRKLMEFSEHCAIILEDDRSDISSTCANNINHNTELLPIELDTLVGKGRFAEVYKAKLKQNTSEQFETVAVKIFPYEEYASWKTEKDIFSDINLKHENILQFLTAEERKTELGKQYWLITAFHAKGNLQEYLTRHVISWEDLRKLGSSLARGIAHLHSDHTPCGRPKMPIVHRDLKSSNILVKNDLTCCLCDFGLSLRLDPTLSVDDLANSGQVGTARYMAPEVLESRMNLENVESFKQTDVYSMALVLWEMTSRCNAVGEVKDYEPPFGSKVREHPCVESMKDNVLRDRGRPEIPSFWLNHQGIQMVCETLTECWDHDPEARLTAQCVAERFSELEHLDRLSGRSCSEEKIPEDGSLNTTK
Sequence of HIPK1 (Q86Z02 whole entry): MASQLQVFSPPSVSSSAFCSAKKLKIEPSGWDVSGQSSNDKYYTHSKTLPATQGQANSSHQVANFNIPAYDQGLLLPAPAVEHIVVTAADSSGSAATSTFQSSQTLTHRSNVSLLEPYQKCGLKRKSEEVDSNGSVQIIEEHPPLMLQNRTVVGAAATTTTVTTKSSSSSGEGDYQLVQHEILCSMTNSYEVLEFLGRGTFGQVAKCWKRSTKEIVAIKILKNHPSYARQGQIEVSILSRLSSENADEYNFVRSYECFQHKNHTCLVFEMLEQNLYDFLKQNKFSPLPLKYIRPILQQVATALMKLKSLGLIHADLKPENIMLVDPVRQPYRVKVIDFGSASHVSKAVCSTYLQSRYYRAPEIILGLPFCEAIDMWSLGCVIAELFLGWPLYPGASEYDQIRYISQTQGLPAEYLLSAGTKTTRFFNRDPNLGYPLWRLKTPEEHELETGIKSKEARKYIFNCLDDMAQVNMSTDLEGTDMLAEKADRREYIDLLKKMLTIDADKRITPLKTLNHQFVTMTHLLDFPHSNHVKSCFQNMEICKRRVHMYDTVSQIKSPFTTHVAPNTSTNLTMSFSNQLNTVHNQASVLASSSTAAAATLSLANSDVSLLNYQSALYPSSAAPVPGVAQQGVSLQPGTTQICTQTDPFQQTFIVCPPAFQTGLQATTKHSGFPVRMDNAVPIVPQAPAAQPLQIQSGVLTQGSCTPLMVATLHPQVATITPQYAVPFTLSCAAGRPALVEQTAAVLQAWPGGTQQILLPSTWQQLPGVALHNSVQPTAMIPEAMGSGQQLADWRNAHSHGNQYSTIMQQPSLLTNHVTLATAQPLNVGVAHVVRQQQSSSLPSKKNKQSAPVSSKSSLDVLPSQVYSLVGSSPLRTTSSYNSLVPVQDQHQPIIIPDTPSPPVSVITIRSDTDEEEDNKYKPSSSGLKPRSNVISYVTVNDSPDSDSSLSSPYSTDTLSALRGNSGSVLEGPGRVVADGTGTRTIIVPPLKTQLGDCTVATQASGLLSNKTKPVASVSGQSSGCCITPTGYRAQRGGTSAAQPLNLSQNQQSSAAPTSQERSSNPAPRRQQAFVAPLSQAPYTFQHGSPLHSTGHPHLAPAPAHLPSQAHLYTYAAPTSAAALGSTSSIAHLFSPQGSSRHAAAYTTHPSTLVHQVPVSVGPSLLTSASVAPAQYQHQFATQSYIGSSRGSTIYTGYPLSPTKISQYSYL
T2 sequence (P68400 whole entry): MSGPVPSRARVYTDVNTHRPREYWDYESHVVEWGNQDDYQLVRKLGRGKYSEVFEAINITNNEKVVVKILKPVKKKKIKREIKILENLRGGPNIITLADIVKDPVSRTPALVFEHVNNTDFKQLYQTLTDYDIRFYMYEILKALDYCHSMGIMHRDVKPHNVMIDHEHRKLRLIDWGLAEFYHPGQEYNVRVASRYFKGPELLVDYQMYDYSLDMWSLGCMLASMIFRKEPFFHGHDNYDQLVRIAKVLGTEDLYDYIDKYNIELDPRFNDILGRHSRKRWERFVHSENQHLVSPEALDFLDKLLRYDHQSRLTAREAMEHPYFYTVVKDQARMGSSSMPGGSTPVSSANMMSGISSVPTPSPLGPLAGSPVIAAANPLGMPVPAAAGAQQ
T4 sequence (Q9NYL2 whole entry): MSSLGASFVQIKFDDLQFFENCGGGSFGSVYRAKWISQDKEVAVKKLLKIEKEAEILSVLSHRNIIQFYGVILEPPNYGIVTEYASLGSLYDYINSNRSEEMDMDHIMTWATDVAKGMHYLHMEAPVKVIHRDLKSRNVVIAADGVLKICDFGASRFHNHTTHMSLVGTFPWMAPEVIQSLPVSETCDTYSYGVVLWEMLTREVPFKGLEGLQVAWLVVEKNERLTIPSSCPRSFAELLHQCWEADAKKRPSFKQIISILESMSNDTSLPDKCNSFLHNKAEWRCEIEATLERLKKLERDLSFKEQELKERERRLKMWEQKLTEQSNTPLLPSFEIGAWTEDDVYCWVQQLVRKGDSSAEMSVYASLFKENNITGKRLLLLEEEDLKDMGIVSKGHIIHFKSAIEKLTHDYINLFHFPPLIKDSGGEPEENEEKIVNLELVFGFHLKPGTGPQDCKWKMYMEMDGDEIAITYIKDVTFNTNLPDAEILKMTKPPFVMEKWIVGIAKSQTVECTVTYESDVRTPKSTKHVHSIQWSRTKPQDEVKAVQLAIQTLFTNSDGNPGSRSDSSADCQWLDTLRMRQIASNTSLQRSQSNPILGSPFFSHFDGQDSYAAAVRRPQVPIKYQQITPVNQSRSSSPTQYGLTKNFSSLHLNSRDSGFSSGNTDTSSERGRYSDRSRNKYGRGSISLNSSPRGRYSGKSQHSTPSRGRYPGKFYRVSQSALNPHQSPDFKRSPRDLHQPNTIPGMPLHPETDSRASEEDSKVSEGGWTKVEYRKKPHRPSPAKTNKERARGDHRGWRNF
Sequence of VRK2 (Q86Y07 whole entry): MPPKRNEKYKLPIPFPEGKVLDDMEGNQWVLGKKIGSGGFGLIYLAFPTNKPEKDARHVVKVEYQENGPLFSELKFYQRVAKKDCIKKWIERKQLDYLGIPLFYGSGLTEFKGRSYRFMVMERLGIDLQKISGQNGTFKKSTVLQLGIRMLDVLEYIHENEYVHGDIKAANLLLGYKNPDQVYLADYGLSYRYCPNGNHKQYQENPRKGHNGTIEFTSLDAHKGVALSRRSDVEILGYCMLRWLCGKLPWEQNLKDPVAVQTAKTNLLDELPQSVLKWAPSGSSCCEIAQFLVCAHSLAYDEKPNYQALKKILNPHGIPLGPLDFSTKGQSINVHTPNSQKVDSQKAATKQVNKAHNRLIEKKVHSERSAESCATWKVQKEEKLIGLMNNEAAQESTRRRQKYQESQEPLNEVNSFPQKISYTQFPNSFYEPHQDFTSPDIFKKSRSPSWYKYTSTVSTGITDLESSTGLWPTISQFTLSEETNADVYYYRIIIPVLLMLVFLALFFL

Compound: O=C1Nc2ccc(I)cc2/C1=C/c1cc(Br)c(O)c(Br)c1 [GW5074]
- IC50 (ARAF): 15.1 nM
- IC50 (CK2a): 231 nM
- IC50 (DYRK4): 1610 nM
- IC50 (ZAK/MLTK): 3110 nM

Compound: CN[C@@H]1C[C@H]2O[C@@](C)([C@@H]1OC)n1c3ccccc3c3c4c(c5c6ccccc6n2c5c31)C(=O)NC4 [STAUROSPORINE]
- IC50 (PKMYT1): 10.4 nM

Compound: c1ccc2c(-c3cnn4cc(-c5ccc(N6CCNCC6)cc5)cnc34)ccnc2c1 [LDN193189]
- IC50 (TGFBR2): 54.8 nM

Compound: Oc1ccc(-c2nc(-c3ccncc3)c(-c3ccc(F)cc3)[nH]2)cc1 [SB202190]
- IC50 (TTBK2): 5470 nM
- IC50 (TTBK1): 1.31e-05 M

Compound: Cn1cc(C2=C(c3cn(CCCSC(=N)N)c4ccccc34)C(=O)NC2=O)c2ccccc21 [RO-31-8220]
- IC50 (COT1/MAP3K8): 10200 nM
- IC50 (HIPK1): 3060 nM
- IC50 (HPK1/MAP4K1): 51 nM
- IC50 (LOK/STK10): 141 nM
- IC50 (VRK2): 5730 nM

Compound: O=C(Nc1ccc2[nH]nc(-c3ccncc3)c2c1)[C@@H]1CCN(CC(=O)N2CCN(c3ccc(-c4ncccn4)cc3)CC2)C1 [SCH772984]
- IC50 (ERK1): 9.34 nM

— article PMC8429728, “TNK1 is a ubiquitin-binding and 14-3-3-regulated kinase that can be targeted to block tumor growth” (Nature Communications, 2021)
